{"source": "patent US12616206B2", "about": "“Graphene-silver nanocomposites and uses for same as an antimicrobial composition” (ZENTEK LTD., priority 2020, dated 2026)", "origin": "cited, not measured here", "settings_in_all_cases": "literature value, source by footnote a-g", "key": {"Vibrio cholerae": {"test_system": "Vibrio cholerae"}, "Candida albicans": {"test_system": "Candida albicans"}, "Salmonella typhi": {"test_system": "Salmonella typhi"}, "Streptococcus pyogenes": {"test_system": "Streptococcus pyogenes"}}}
{"compound": "O=[N+]([O-])[O-].[Ag+]", "note": "[AgNO3, silver nitrate]", "values": [{"measurement": "MIC", "setting": "Vibrio cholerae", "value": "70 ^c μg/mL"}, {"measurement": "MIC", "setting": "Candida albicans", "value": "4.9 ^f μg/mL"}, {"measurement": "MIC", "setting": "Salmonella typhi", "value": "110 ^c μg/mL"}, {"measurement": "MIC", "setting": "Streptococcus pyogenes", "value": "80 ^c μg/mL"}]}
